Measured values: PMC6272341, “Synthesis and Biological Evaluation of N-Alkoxyphenyl-3-hydroxynaphthalene-2-carboxanilides” (Molecules, 2015)
In brackets after ≈: the same amount, converted by molar mass. Several values for one entry are separate records, joined by “and”; a condition that tells them apart may be missing. Equal values may be shown once. Read-outs that look alike come from different tables or passages of the source.

Legend:
[1] = system: methicillin-resistant S. aureus clinical isolate MRSA 63718; experiment: In vitro antibacterial susceptibility testing, broth dilution micro-method (MIC); settings: Staphylococcus aureus, MRSA, 24 h, read-out: MIC MRSA 63718, clinical isolate MRSA 63718; 24 h, 37 °C, MH broth
[2] = system: methicillin-resistant S. aureus clinical isolate SA 630; experiment: as above; settings: Staphylococcus aureus, MRSA, 24 h, read-out: MIC MRSA SA 630, clinical isolate MRSA SA 630, 37 °C, MH broth
[3] = system: human monocytic leukemia THP-1 cells; settings: 24 h
[4] = system: methicillin-resistant S. aureus clinical isolate SA 3202; experiment: In vitro antibacterial susceptibility testing, broth dilution micro-method (MIC); settings: Staphylococcus aureus, MRSA, 24 h, read-out: MIC MRSA 3202, clinical isolate MRSA 3202, 37 °C, MH broth
[5] = system: M. tuberculosis H37Ra ATCC 25177; experiment: In vitro antimycobacterial evaluation, alamarBlue (MIC); type: cell-based; settings: Mycobacterium tuberculosis, 168 h, read-out: MIC MT
Procedure: The evaluation of the in vitro antimycobacterial activity of the compounds was performed against M. tuberculosis H37Ra ATCC 25177 [25] and clinical isolate of M. avium subsp. paratuberculosis CIT03 [26], see Table 1. The activity of compounds was expressed as the minimum inhibitory concentration (MIC) that is defined for mycobacteria as a 90% or greater (IC90) reduction of growth in comparison with the control. The MIC/IC90 value is routinely and widely used in bacterial assays, being a standard detection limit according to the Clinical and Laboratory Standards Institute.
Mycobacterium tuberculosis H37Ra ATCC 25177 and well characterised clinical isolate M. avium subsp. paratuberculosis CIT03 were grown in Middlebrook broth (MB), supplemented with Oleic-Albumin-Dextrose-Catalase supplement (Becton Dickinson, Oxford, UK) and mycobactin J (2 μg/mL). Identification of these isolates was performed using biochemical and molecular protocols. At log phase growth, a culture sample (10 mL) was centrifuged at 15,000 rpm/20 min using a bench top centrifuge (Model CR 4-12, Jouan Inc., Winchester, VA, USA). Following removal of the supernatant, the pellet was washed in fresh Middlebrook 7H9GC broth and re-suspended in fresh supplemented MB (10 mL). The turbidity was adjusted to match McFarland standard No. 1 (3 × 10^8 cfu) with MB broth. A further 1:20 dilution of the culture was then performed in MB broth. The antimicrobial susceptibility of all three mycobacterial species was investigated in a 96-well plate format. In these experiments, sterile deionised water (300 µL) was added to all outer-perimeter wells of the plates to minimize evaporation of the medium in the test wells during incubation. Sample wells were composed of 100 µL of test compound dilution and 100 µL of the bacterial stock being tested against. Dilutions of each compound were prepared in duplicate. For all synthesized compounds, final concentrations ranged from 1000 μg/mL to 8 μg/mL. All compounds were prepared in DMSO and subsequent dilutions were made in supplemented MB. The plates were sealed with parafilm and incubated at 37 °C, for 7 days in the case of M. tuberculosis and 11 days in the case of M. avium subsp. paratuberculosis. Following incubation, a 10% addition of alamarBlue (AbD Serotec, Kidlington, UK) was mixed into each well and readings at 570 nm and 600 nm were taken, initially for background subtraction and subsequently after 24 h re-incubation. The background subtraction is necessary for strongly coloured compounds, where the colour may interfere with the interpretation of any colour change. For non-interfering compounds, a blue colour in the well was interpreted as an absence of growth and a pink colour was scored as growth. […] The MIC value is routinely and widely used in bacterial assays and is a standard detection limit according to the Clinical and Laboratory Standards Institute (CLSI,). Rifampicin (Sigma-Aldrich) was used as the standard as it is clinically used antimycobacterial drugs.

S. aureus ATCC 29213 = experiment: In vitro antibacterial susceptibility testing, broth dilution micro-method (MIC); settings: Staphylococcus aureus, ATCC29213, 24 h, read-out: MIC SA
[6] = system: clinical isolate of M. avium subsp. paratuberculosis CIT03; experiment: In vitro antimycobacterial evaluation, alamarBlue (MIC); type: cell-based; settings: Mycobacterium avium, 264 h, read-out: MIC MAP
[7] = system: photosynthetic electron transport in spinach chloroplasts; experiment: Inhibition of photosynthetic electron transport (PET), DCPIP photoreduction (Hill reaction); type: biochemical, spinach (Spinacia oleracea L.)
Procedure: The PET inhibiting activity of the compounds was expressed by IC50 values. […] The aqueous solubility of the para-substituted compounds was limited; therefore IC50 values could not be determined due to precipitation of compounds during experiment. […]
Chloroplasts were prepared from spinach (Spinacia oleracea L.) according to Masarovicova and Kralova. The inhibition of photosynthetic electron transport (PET) in spinach chloroplasts was determined spectrophotometrically (Genesys 6, Thermo Scientific Corporation), using an artificial electron acceptor 2,6-dichlorophenol-indophenol (DCPIP) according to Kralova et al., and the rate of photosynthetic electron transport was monitored as a photoreduction of DCPIP. The measurements were carried out in phosphate buffer (20.0 mM, pH 7.2) containing sucrose (0.4 M), MgCl2 (5.0 mM) and NaCl (15.0 mM). The chlorophyll content was 30 mg/L in these experiments and the samples were irradiated (~100 W/m^2 with 10 cm distance) with a halogen lamp (250 W) using a 4 cm water filter to prevent warming of the samples (suspension temperature 22 °C). The studied compounds were dissolved in DMSO due to their limited aqueous solubility. The applied DMSO concentration (up to 4%) had negligible effect on the photochemical activity in isolated spinach chloroplasts (observed differences in DCPIP photoreduction due DMSO addition were within experimental error). The inhibitory efficiency of the studied compounds was expressed by IC50 values, i.e., by molar concentration of the compounds causing 50% decrease in DCPIP photoreduction relative to the untreated control. […] All reagents used in this study were of analytical grade and were purchased from Sigma.

[8] = M. tuberculosis H37Ra, 7 days, 37 °C, alamarBlue, MIC/IC90
[9] = M. avium subsp. paratuberculosis CIT03, 11 days, 37 °C, alamarBlue, MIC/IC90

Row | Structure (SMILES) | MIC [1] | MIC [2] | LD50 [3] | MIC [4] | MIC [5, 8] | MIC (S. aureus ATCC 29213) | MIC [6] | IC50 [7] | MIC [6, 9] | MIC [5]
1 | CCCOc1ccc(NC(=O)c2cc3ccccc3cc2O)cc1 [Compound 5c, 3-Hydroxy-N-(4-propoxyphenyl)naphthalene-2-carboxamide] | 796 µM (≈ 256 µg/mL) | 796 µM (≈ 256 µg/mL) | >30 µM | 796 µM (≈ 256 µg/mL) | 778 µM (≈ 250 µg/mL) | 796 µM (≈ 256 µg/mL) | 778 µM (≈ 250 µg/mL) |  |  | 
2 | CC(C)Oc1ccccc1NC(=O)c1cc2ccccc2cc1O [Compound 7a, 3-Hydroxy-N-[2-(prop-2-yloxy)phenyl]naphthalene-2-carboxamide] | 796 µM (≈ 256 µg/mL) | 796 µM (≈ 256 µg/mL) | >30 µM | 796 µM (≈ 256 µg/mL) | 389 µM (≈ 125 µg/mL) | 796 µM (≈ 256 µg/mL) |  | 138000 nM | 778 µM (≈ 250 µg/mL) | 
3 | CC(C)Oc1ccc(NC(=O)c2cc3ccccc3cc2O)cc1 [Compound 7c, 3-Hydroxy-N-[4-(prop-2-yloxy)phenyl]naphthalene-2-carboxamide] | 796 µM (≈ 256 µg/mL) | 796 µM (≈ 256 µg/mL) | >30 µM | 796 µM (≈ 256 µg/mL) | 389 µM (≈ 125 µg/mL) | 796 µM (≈ 256 µg/mL) |  |  | 778 µM (≈ 250 µg/mL) | 
4 | O=C(Nc1ccccc1)c1cc2ccccc2cc1O [Compound 2, 3-Hydroxy-N-phenylnaphthalene-2-carboxamide] | 972 µM (≈ 256 µg/mL) | 972 µM (≈ 256 µg/mL) | >30 µM | 972 µM (≈ 256 µg/mL) |  | 972 µM (≈ 256 µg/mL) |  |  | 950 µM (≈ 250 µg/mL) | 950 µM (≈ 250 µg/mL)
5 | CCOc1ccc(NC(=O)c2cc3ccccc3cc2O)cc1 [Compound 4c, N-(4-Ethoxyphenyl)-3-hydroxynaphthalene-2-carboxamide] | 832 µM (≈ 256 µg/mL) | 832 µM (≈ 256 µg/mL) | >30 µM | 832 µM (≈ 256 µg/mL) | 813 µM (≈ 250 µg/mL) | 832 µM (≈ 256 µg/mL) | 813 µM (≈ 250 µg/mL) |  |  | 
6 | CC1(C)S[C@@H]2[C@H](NC(=O)[C@H](N)c3ccccc3)C(=O)N2[C@H]1C(=O)O [APC, ampicillin, reference compound] | > 46 µM | > 46 µM |  | > 46 µM |  | 5.7 µM (≈ 1.99 µg/mL) |  |  |  | 
7 | CN(C)C(=O)Nc1ccc(Cl)c(Cl)c1 [DCMU, 3-(3,4-dichlorophenyl)-1,1-dimethylurea, reference compound] |  |  |  |  |  |  |  | ~1900 nM and 1900 nM |  | 
8 | COc1ccc(NC(=O)c2cc3ccccc3cc2O)cc1 [Compound 3c, 3-hydroxy-N-(4-methoxyphenyl)naphthalene-2-carboxamide] | 873 µM (≈ 256 µg/mL) | 873 µM (≈ 256 µg/mL) | >30 µM | 873 µM (≈ 256 µg/mL) | 852 µM (≈ 250 µg/mL) | 873 µM (≈ 256 µg/mL) | 852 µM (≈ 250 µg/mL) |  |  | 
